Experimental data as given in patent publication US6358885B1, “Substituted phenylheterocyclic herbicides” (Mississippi State University, priority 1992, dated 2002).

Legend:
Experiment in all cases: Test G preemergence/postemergence greenhouse plant response rating 0 to 100
[1] = system: sandbur; assay type: in vivo, Cenchrus echinatus; conditions: 0 to 100 scale
Summary of the method: (§1)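 Greenhouse pots, one species each; non-phytotoxic solvent vehicle. Read-out: visual injury vs untreated, 13–21 DAT. Dash denotes no result.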

[2] = system: bermudagrass; assay type: in vivo, Cynodon dactylon; conditions: 0 to 100 scale
Summary of the method: as §1

[3] = system: large crabgrass; assay type: in vivo, Digitaria sanguinalis; conditions: 0 to 100 scale
Summary of the method: as §1

[4] = system: guineagrass; assay type: in vivo, Panicum maximum; conditions: 0 to 100 scale
Summary of the method: as §1

[5] = system: alfalfa; assay type: in vivo, Medicago ativa; conditions: 0 to 100 scale
Summary of the method: as §1

[6] = system: goosegrass; assay type: in vivo, Eleusine indica; conditions: 0 to 100 scale
Summary of the method: as §1

[7] = system: itchgrass; assay type: in vivo, Rottboellia exaltata; conditions: 0 to 100 scale
Summary of the method: as §1

[8] = system: common ragweed; assay type: in vivo, Ambrosia elatior; conditions: 0 to 100 scale
Summary of the method: as §1

[9] = system: peanut; assay type: in vivo, Arachis hypoagaea; conditions: 0 to 100 scale
Summary of the method: as §1

[10] = system: yellow nutsedge; assay type: in vivo, Cyperus esculentus; conditions: Rate 125 g/ha, 0 to 100 scale
Summary of the method: as §1

[11] = system: johnsongrass; assay type: in vivo, Sorghum halepense; conditions: 0 to 100 scale
Summary of the method: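 Scoring: visual injury at 13 to 21 days post-application, compared with untreated controls. Planting: one species per pot in greenhouse medium. Dosing: compound in non-phytotoxic solvent, within one day of sowing for preemergence or at 2–4 leaves for postemergence.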

[12] = system: smooth crabgrass; assay type: in vivo, Digitaria ischaemum; conditions: 0 to 100 scale
Summary of the method: as §1

[13] = system: broadleaf signalgrass; assay type: in vivo, Brachiaria plantaginea; conditions: 0 to 100 scale
Summary of the method: as §1

[14] = system: common purslane; assay type: in vivo, Portulaca oleracea; conditions: 0 to 100 scale
Summary of the method: as §1

[15] = system: annual bluegrass; assay type: in vivo, Poa annua; conditions: 0 to 100 scale
Summary of the method: as §1

[16] = system: pitted morningglory; assay type: in vivo, Ipomoea lacunosa; conditions: 0 to 100 scale
Summary of the method: as §1

SMILES: COC(=O)C(C)Oc1cc(-c2nn3c(c2Cl)CCCC3)c(F)cc1Cl (centres unmarked) [Compound 28]
- Plant response rating, S. Sandbur ([1]; POSTEMERGENCE, Rate 125 g/ha): 0
- Plant response rating, S. Sandbur ([1]; POSTEMERGENCE, Rate 250 g/ha): 0
- Plant response rating, S. Sandbur ([1]; PREEMERGENCE, Rate 125 g/ha): 0
- Plant response rating, S. Sandbur ([1]; PREEMERGENCE, Rate 250 g/ha): 0
- Plant response rating, Bermudagrass ([2]; POSTEMERGENCE, Rate 125 g/ha): 0
- Plant response rating, Bermudagrass ([2]; POSTEMERGENCE, Rate 250 g/ha): 0
- Plant response rating, Bermudagrass ([2]; PREEMERGENCE, Rate 125 g/ha): 0
- Plant response rating, Bermudagrass ([2]; PREEMERGENCE, Rate 250 g/ha): 0
- Plant response rating, Large Crabgrass ([3]; POSTEMERGENCE, Rate 125 g/ha): 0
- Plant response rating, Large Crabgrass ([3]; POSTEMERGENCE, Rate 250 g/ha): 0
- Plant response rating, Large Crabgrass ([3]; PREEMERGENCE, Rate 125 g/ha): 0
- Plant response rating, Large Crabgrass ([3]; PREEMERGENCE, Rate 250 g/ha): 0
- Plant response rating, Guineagrass ([4]; POSTEMERGENCE, Rate 125 g/ha): 0
- Plant response rating, Guineagrass ([4]; POSTEMERGENCE, Rate 250 g/ha): 0
- Plant response rating, Guineagrass ([4]; PREEMERGENCE, Rate 125 g/ha): 0
- Plant response rating, Guineagrass ([4]; PREEMERGENCE, Rate 250 g/ha): 0
- Plant response rating, Alfalfa Var. ([5]; POSTEMERGENCE, Rate 125 g/ha): 0
- Plant response rating, Alfalfa Var. ([5]; POSTEMERGENCE, Rate 250 g/ha): 0
- Plant response rating, Alfalfa Var. ([5]; PREEMERGENCE, Rate 125 g/ha): 0
- Plant response rating, Alfalfa Var. ([5]; PREEMERGENCE, Rate 250 g/ha): 0
- Plant response rating, Goosegrass ([6]; POSTEMERGENCE, Rate 125 g/ha): 0
- Plant response rating, Goosegrass ([6]; POSTEMERGENCE, Rate 250 g/ha): 0
- Plant response rating, Goosegrass ([6]; PREEMERGENCE, Rate 125 g/ha): 0
- Plant response rating, Goosegrass ([6]; PREEMERGENCE, Rate 250 g/ha): 0
- Plant response rating, Itchgrass ([7]; POSTEMERGENCE, Rate 125 g/ha): 0
- Plant response rating, Itchgrass ([7]; POSTEMERGENCE, Rate 250 g/ha): 0
- Plant response rating, Itchgrass ([7]; PREEMERGENCE, Rate 125 g/ha): 0
- Plant response rating, Itchgrass ([7]; PREEMERGENCE, Rate 250 g/ha): 0
- Plant response rating, Cmn Ragweed ([8]; POSTEMERGENCE, Rate 125 g/ha): 100
- Plant response rating, Cmn Ragweed ([8]; POSTEMERGENCE, Rate 250 g/ha): 60
- Plant response rating, Cmn Ragweed ([8]; PREEMERGENCE, Rate 125 g/ha): 0
- Plant response rating, Cmn Ragweed ([8]; PREEMERGENCE, Rate 250 g/ha): 0
- Plant response rating, Peanuts ([9]; POSTEMERGENCE, Rate 125 g/ha): 0
- Plant response rating, Peanuts ([9]; POSTEMERGENCE, Rate 250 g/ha): 0
- Plant response rating, Peanuts ([9]; PREEMERGENCE, Rate 125 g/ha): 0
- Plant response rating, Peanuts ([9]; PREEMERGENCE, Rate 250 g/ha): 0
- Plant response rating, Yellow Nutsedge ([10]; POSTEMERGENCE): 0
- Plant response rating, Yellow Nutsedge ([10]; PREEMERGENCE): 0
- Plant response rating, Johnsongrass ([11]; POSTEMERGENCE, Rate 125 g/ha): 0
- Plant response rating, Johnsongrass ([11]; POSTEMERGENCE, Rate 250 g/ha): 0
- Plant response rating, Johnsongrass ([11]; PREEMERGENCE, Rate 125 g/ha): 0
- Plant response rating, Johnsongrass ([11]; PREEMERGENCE, Rate 250 g/ha): 0
- Plant response rating, Smooth Crabgras ([12]; POSTEMERGENCE, Rate 125 g/ha): 0
- Plant response rating, Smooth Crabgras ([12]; POSTEMERGENCE, Rate 250 g/ha): 0
- Plant response rating, Smooth Crabgras ([12]; PREEMERGENCE, Rate 125 g/ha): 0
- Plant response rating, Smooth Crabgras ([12]; PREEMERGENCE, Rate 250 g/ha): 0
- Plant response rating, Brdlf Sgnlgrass ([13]; POSTEMERGENCE, Rate 125 g/ha): 0
- Plant response rating, Brdlf Sgnlgrass ([13]; POSTEMERGENCE, Rate 250 g/ha): 0
- Plant response rating, Brdlf Sgnlgrass ([13]; PREEMERGENCE, Rate 125 g/ha): 0
- Plant response rating, Brdlf Sgnlgrass ([13]; PREEMERGENCE, Rate 250 g/ha): 0
- Plant response rating, Cmn Purslane ([14]; POSTEMERGENCE, Rate 125 g/ha): 30
- Plant response rating, Cmn Purslane ([14]; POSTEMERGENCE, Rate 250 g/ha): 60
- Plant response rating, Cmn Purslane ([14]; PREEMERGENCE, Rate 125 g/ha): 0
- Plant response rating, Cmn Purslane ([14]; PREEMERGENCE, Rate 250 g/ha): 0
- Plant response rating, Ann Bluegrass ([15]; POSTEMERGENCE, Rate 125 g/ha): 0
- Plant response rating, Ann Bluegrass ([15]; POSTEMERGENCE, Rate 250 g/ha): 0
- Plant response rating, Ann Bluegrass ([15]; PREEMERGENCE, Rate 125 g/ha): 0
- Plant response rating, Ann Bluegrass ([15]; PREEMERGENCE, Rate 250 g/ha): 0
- Plant response rating, Pit Morninglory ([16]; POSTEMERGENCE, Rate 125 g/ha): 0
- Plant response rating, Pit Morninglory ([16]; POSTEMERGENCE, Rate 250 g/ha): 0
- Plant response rating, Pit Morninglory ([16]; PREEMERGENCE, Rate 125 g/ha): 0
- Plant response rating, Pit Morninglory ([16]; PREEMERGENCE, Rate 250 g/ha): 0
